Source: BindingDB's records for doi:10.1021/jm00139a009 (1981)

Biological target: T1, Dihydrofolate reductase (Rattus norvegicus, UniProt Q920D2)
T1 sequence (Q920D2 whole entry): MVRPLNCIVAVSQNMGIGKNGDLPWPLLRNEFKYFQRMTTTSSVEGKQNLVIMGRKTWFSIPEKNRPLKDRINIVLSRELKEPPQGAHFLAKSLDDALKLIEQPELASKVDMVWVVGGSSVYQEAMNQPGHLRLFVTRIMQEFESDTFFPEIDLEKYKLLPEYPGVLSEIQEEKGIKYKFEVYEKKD
Experiment: Inhibitory activity against dihydrofolate reductase of rat liver

Row | IC50 | SMILES
1 | 7.59 nM | Nc1nc(N)c2c(Cl)c(NCc3cccc(Br)c3)ccc2n1
2 | 5.01 nM | Nc1nc(N)c2c(Cl)c(NC(=O)Cc3ccc4ccccc4c3)ccc2n1
3 | 15100 nM | Nc1nc(N)c2c(S(=O)(=O)c3ccc4ccccc4c3)cccc2n1
4 | 3980 nM | Nc1nc(N)c2cc(Cl)ccc2n1
5 | 661 nM | Nc1nc(N)c2c(Cl)c(N)ccc2n1
6 | 10000 nM | Nc1nc(N)c2cc(C=O)ccc2n1
7 | 9330 nM | NCc1ccc2nc(N)nc(N)c2c1
8 | 5.01 nM | Nc1nc(N)c2cc(NC(=O)Cc3ccc4ccccc4c3)ccc2n1
9 | 7.08 nM | Nc1nc(N)c2c(Sc3ccc4ccccc4c3)cccc2n1
10 | 22.9 nM | Nc1nc(N)c2cc(NC(=O)Cc3ccc(Cl)cc3)ccc2n1
11 | 5250 nM | Nc1nc(N)c2c(/C=C\c3ccc4ccccc4c3)cccc2n1
12 | 562 nM | Nc1nc(N)c2c(Cl)cccc2n1
13 | 200 nM | Nc1nc(N)c2c(Cl)c(Cl)ccc2n1
14 | 17 nM | Cc1c(NC(=O)Cc2ccc(Cl)c(Cl)c2)ccc2nc(N)nc(N)c12
15 | 55000 nM | Nc1nc(N)c2c([S+]([O-])c3ccc(Cl)c(Cl)c3)cccc2n1 (stereo not drawn)
16 | 18.2 nM | Nc1nc(N)c2cc(NCc3ccc(Cl)c(Cl)c3)ccc2n1
17 | 11 nM | Nc1nc(N)c2cc(Sc3ccc(Cl)c(Cl)c3)ccc2n1

Row | IC50 | SMILES
18 | 7.08 nM | Nc1nc(N)c2cc([S+]([O-])c3ccc4ccccc4c3)ccc2n1 (stereo not drawn)
19 | 10 nM | Nc1nc(N)c2c(CSc3ccc4ccccc4c3)cccc2n1
20 | 3020 nM | Nc1nc(N)c2c(/C=C/c3ccc4ccccc4c3)cccc2n1
21 | 2190 nM | Cc1ccc2nc(N)nc(N)c2c1
22 | 57500 nM | Nc1nc(N)c2c(S(=O)(=O)c3ccc(Cl)c(Cl)c3)cccc2n1
23 | 33.9 nM | Cc1c(NC(=O)Cc2cccc(Br)c2)ccc2nc(N)nc(N)c12
24 | 19.9 nM | Nc1nc(N)c2c(CSc3ccc(Cl)cc3)cccc2n1
25 | 4.17 nM | Cc1c(NC(=O)Cc2ccc3ccccc3c2)ccc2nc(N)nc(N)c12
26 | 100 nM | Nc1nc(N)c2c(Cl)c(Br)ccc2n1
27 | 24 nM | Nc1nc(N)c2c(Cl)c(NC(=O)Cc3ccc(Cl)c(Cl)c3)ccc2n1
28 | 200 nM | Nc1nc(N)c2c(Sc3ccc(Cl)c(Cl)c3)cccc2n1
29 | 3.98 nM | O=[N+]([O-])c1ccc(/C=C/C=C/c2ccccc2)cc1
30 | 813 nM | Cc1cccc2nc(N)nc(N)c12 [GNF-Pf-690]
31 | 26900 nM | Nc1ccc2nc(N)nc(N)c2c1 [QUINAZOLINE-2,4,6-TRIAMINE]
32 | 19.9 nM | Nc1nc(N)c2c(CCc3ccc4ccccc4c3)cccc2n1 [TCMDC-141975]
33 | 36.3 nM | Nc1nc(N)c2cc(Sc3cccc(C(F)(F)F)c3)ccc2n1 [WR-159412]
